The values that follow come from US4452788A, “Substituted 8-phenylxanthines” (Warner-Lambert Company, priority 1982, dated 1984).

Counter-ions that a name gives are not always drawn.

The first assay has as its target adenosine receptor. Description: adenosine receptor antagonism assayed by the procedure described in Proc. Natl. Acad. Sci. USA, 77, 5547 (1980). It is filed as binding. The following applies: procedure of Proc. Natl. Acad. Sci. USA, 77, 5547 (1980). The source says:
The relevant teachings of this manuscript are incorporated herein by reference.
The molecule `CCn1c(=O)c2[nH]c(-c3ccc(S(N)(=O)=O)cc3)nc2n(CC)c1=O` [C2 H5, C2 H5, H, 4-SO2 NH2, 4-(1,3-diethyl-2,3,6,7-tetrahydro-2,6-dioxo-1H-purin-8-yl)benzenesulfonamide] came in with an IC50 of 50 nM.
Molecule `CCCn1c(=O)c2[nH]c(-c3ccc(S(=O)(=O)O)cc3)nc2n(CCC)c1=O` [n-C3 H7, n-C3 H7, H, 4-SO3 K, 4-(1,3-dipropyl-2,3,6,7-tetrahydro-2,6-dioxo-1H-purin-8-yl)benzenesulfonic acid potassium salt] registered an IC50 of 100 nM.
On the same count and under the same terms, to `CCn1c(=O)c2[nH]c(-c3cccc(S(=O)(=O)NCCN(C)C)c3)nc2n(CC)c1=O` [C2 H5, C2 H5, H, 3-SO2 NH(CH2)2 N(CH3)2, 3-(1,3-Diethyl-2,3,6,7-tetrahydro-2,6,-dioxo-1H-purin-8-yl)-N-[2-(dimethylamino)ethyl]benzenesulfonamide] belongs 550 nM; to `CCn1c(=O)c2[nH]c(-c3ccc(S(=O)(=O)N4CCOCC4)cc3)nc2n(CC)c1=O` [C2 H5, C2 H5, H, 4-SO2 N(CH2 CH2)2 O, 4-[[4-(1,3-Diethyl-2,3,6,7-tetrahydro-2,6-dioxo-1H-purin-8-yl)phenyl]sulfonyl]morpholine], 300 nM; to `CCn1c(=O)c2[nH]c(-c3ccc(S(=O)(=O)NCCCN(C)C)cc3)nc2n(CC)c1=O` [C2 H5, C2 H5, H, 4-SO2 NH(CH2)3 N(CH3)2, 4-(1,3-Diethyl-2,3,6,7-tetrahydro-2,6-dioxo-1H-purin-8-yl)-N-[3-(dimethylamino)propyl]benzenesulfonamide], 70 nM.
`CCn1c(=O)c2[nH]c(-c3ccc(S(=O)(=O)N4CCN(C)CC4)cc3)nc2n(CC)c1=O` [C2 H5, C2 H5, H, 4-SO2 N(CH2 CH2)2 NCH3, 1-[[4-(1,3-Diethyl-2,3,6,7-tetrahydro-2,6,-dioxo-1H-purin-8-yl)phenyl]sulfonyl]-4-methyl-piperazine] had an IC50 of 150 nM.
In turn, `CCn1c(=O)c2[nH]c(-c3cccc(S(=O)(=O)O)c3)nc2n(CC)c1=O` [C2 H5, C2 H5, H, 3-SO3 K, 3-(1,3-diethyl-2,3,6,7-tetrahydro-2,6-dioxo-1H-purin-8-yl)benzenesulfonic acid potassium salt] gave an IC50 of 37000 nM.
`CCCn1c(=O)c2[nH]c(-c3ccc(S(=O)(=O)NCCN(C)C)cc3)nc2n(CCC)c1=O` [N-[2-(Dimethylamino)ethyl]-4-(2,3,6,7-tetrahydro-2,6-dioxo-1,3-dipropyl-1H-purin-8-yl)benzenesulfonamide] gave an IC50 of 10 nM.
`CCn1c(=O)c2[nH]c(-c3ccc(S(=O)(=O)O)cc3)nc2n(CC)c1=O` [C2 H5, C2 H5, H, 4-SO3 K] yielded an IC50 of 4900 nM.

A further assay deals with adenosine receptor.
Assay: not given
Particulars: *Results reported in Proc. Natl. Acad. Sci. USA, 77, 5547(1980); cited from earlier work.
In the case of `Cn1c(=O)c2[nH]c(-c3ccc(S(=O)(=O)O)cc3)nc2n(C)c1=O` [CH3, CH3, H, 4-SO3 H, 4-(1,3-dimethyl-2,3,6,7-tetrahydro-2,6-dioxo-1H-purin-8-yl)benzenesulfonicacid], the half-inhibitory concentration (IC50) was 20000 nM.
Turning to `Cn1c(=O)c2[nH]cnc2n(C)c1=O` [theophylline], the IC50 is 15000 nM.
